The values below come from patent publication USRE46558E1, “Compositions and methods to treat diseases characterized by cellular proliferation and angiogenesis” (Paloma Pharmaceuticals, Inc., priority 2005, dated 2017).

For assay [1], the system named is human umbilical vein endothelial cells, HUVECs (proliferating). Put plainly: HUVEC proliferation assay (proliferating, b-FGF or VEGF stimulated). The format is cell-based. Details: inhibition: dose or concentration left out as unconfirmed. To be noted: for inhibition: Homo sapiens, proliferating HUVEC, 48 h, read-out: HUVECp % inhibition. The text has this:
(§1) Anti-tumor (anti-proliferative for cancer cells), anti-angiogenic activity (anti-proliferative for endothelial cells) measured in vitro as inhibition of proliferation binding to estrogen receptor alpha and beta HUVEC Proliferation. Inhibition of the proliferation of human umbilical vein endothelial cells, HUVECs, is shown as one measure of anti-angiogenic activity. HUVECS and the required media complements were purchased from Cascade Biologics (Portland, Oreg.) and the growth and maintenance of the cultures was as described by the manufacturer. The proliferation assay was carried out by seeding the HUVECs in 96-well plates at a density of 1,000 cells/well in complete medium. Following a 24 h plating period, the cells were starved for 24 h in 0.5% serum before being treated with SG (“Signal Gene” now “Palomid”) angiogenic inhibitors in the presence of 10 ng/ml b-FGF or dosing ranging presence of either b-FGF or VEGF in complete medium. After 48 h, cell number was determined using a calorimetric method as described by the supplier (Promega Corp., Madison, Wis.). The results were expressed as the percentage of the maximal b-FGF or VEGF response in the absence of angiogenic inhibitors. Non-proliferating endothelial cells were assayed by growing HUVECs to quiescence in 96-well plates and treating with angiogenic inhibitors for 48 h. Initially, 5,000 cells/well were seeded and confluence was achieved the next day. The plates were incubated another 24 h to ensure growth arrest before treatment with angiogenic inhibitors. Cell number was determined as outlined above.

A further assay deals with HUVEC quiescent. In words: Non-proliferating (quiescent) HUVEC assay. The format is cell-based. Details: dose or concentration left out as unconfirmed. To be noted: Homo sapiens, 48 h, read-out: HUVECq % inhibition.
Text: as §1

For assay [2], the system named is MCF-7 breast cancer cells. Put plainly: Cancer cell line proliferation, breast. In kind it is cell-based. Details: dose or concentration left out as unconfirmed. As to conditions: Homo sapiens, MCF7. The text has this: (§2) Cancer Cell Lines. Measurement of the inhibition of tumor cell growth is one measure of anti-cancer activity. Two human cancer cell lines were used to assess the effects of SG angiogenic inhibitors on the proliferation of these cells. The cell lines were MCF-7 breast cancer cells and the colon carcinoma cell line, HCT-116. All cell lines were obtained from Americans Type Tissue Culture (Manassas, Va.) and maintained in their respective media as described by the supplier. The proliferation studies were carried out essentially as described for the proliferating endothelial cells.

Assay [3] deals with colon carcinoma cell line, HCT-116. In words: Cancer cell line proliferation, colon. The format is cell-based. Details: dose or concentration left out as unconfirmed. As to conditions: Homo sapiens.
Text: as §2

In assay [4] the target is T1, human estrogen receptor beta (Homo sapiens, UniProt Q92731).
T1 construct: made in house; host or cells: rabbit reticulocyte lysate, coupled in vitro transcription-translation (Promega TNT kit)
In words: ER binding assay, [3H]estradiol competition, ERb. To be noted: 0.5 nM [3H]estradiol, 4° C. overnight; na = no activity. The source says: ER Binding Assay. Derivatives which bind and transduce a signal through estrogen receptors would not be considered a positive activity as such an activity could enhance cancer growth as well as induce angiogenesis. Derivatives which either have little or no binding to estrogen receptors (“ER”) would be one desired activity. […] Human cDNAs encoding ERa and ERb were used as templates to express receptor proteins in vitro. The proteins were produced with rabbit reticulocyte lysates as supplied by Promega (TNT kit) that couples transcription and translation in a single reaction. The amount of template used in each reaction was determined empirically and expression was monitored in parallel reactions where [35S]methionine was incorporated into the receptor followed by gel electrophoresis and exposure to film. Binding reactions were carried out in […] final volumes in TEG buffer (10 mM tris, pH 7.5, 1.5 mM EDTA, 10% glycerol). […] The reactions were incubated at 4° C. overnight and bound E2 was quantified by adding […] dextran-coated charcoal. […] The maximum binding was determined by competing bound E2 with only the ethanol vehicle. […] Values for percent inhibition were calculated based on the maximal E2 binding. The data were plotted and Ki values calculated using the Prism Software. […]

Setting [5] is: % of maximal b-FGF or VEGF response.

Like-named read-outs stand apart in the source and are kept apart here.

T1 sequence (Q92731 whole entry): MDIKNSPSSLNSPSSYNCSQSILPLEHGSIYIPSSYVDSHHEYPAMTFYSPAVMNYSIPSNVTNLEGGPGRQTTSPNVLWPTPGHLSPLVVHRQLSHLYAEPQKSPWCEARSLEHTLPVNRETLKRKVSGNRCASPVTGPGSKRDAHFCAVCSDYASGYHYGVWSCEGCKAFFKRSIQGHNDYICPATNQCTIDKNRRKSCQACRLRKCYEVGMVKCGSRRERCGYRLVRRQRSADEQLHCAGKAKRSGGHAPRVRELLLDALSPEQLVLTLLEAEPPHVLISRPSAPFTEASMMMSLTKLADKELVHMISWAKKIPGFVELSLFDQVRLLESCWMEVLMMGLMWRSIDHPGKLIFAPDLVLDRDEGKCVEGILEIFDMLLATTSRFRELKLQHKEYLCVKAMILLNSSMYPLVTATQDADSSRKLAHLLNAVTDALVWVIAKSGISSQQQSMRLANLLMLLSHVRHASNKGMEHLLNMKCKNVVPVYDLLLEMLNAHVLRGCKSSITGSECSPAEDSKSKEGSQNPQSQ

With `COc1cc(COc2cc3oc(=O)c4cc(C(C)=O)ccc4c3cc2OC)cc(OC)c1` [Palomid 546], the inhibition (usually the drop in the measured response relative to a control, in per cent) came to 100% in assay [1] (setting [5]), 18% in assay [1], 23% with HUVEC quiescent and 13% in assay [2].

`COc1cc(COc2cc3oc(=O)c4cc(C(C)O)ccc4c3cc2OC)cc(OC)c1` (stereo not shown) [Palomid 547]: the inhibition in assay [1] (setting [5]) was 106%; in assay [1], 42%; in assay [3], 17%; in the assay on HUVEC quiescent, 25%; in assay [2], 35%.

Turning to `CCc1ccc2c(c1)c(=O)oc1cc(OCc3ccc(Br)cc3)c(OC)cc12` [Palomid 560], in assay [1] (setting [5]), the inhibition amounted to 53%.

Take `CCc1ccc2c(c1)c(=O)oc1cc(OCc3ccccc3OC)c(OC)cc12` [Palomid 551]: the values for the inhibition in assay [1] (setting [5]) and in assay [2] were 62% and 25%, respectively.

For the compound `COc1cc2c(cc1OCc1ccc(C)cc1)oc(=O)c1cc(C(C)O)ccc12` (stereo not shown) [Palomid 575], the inhibition in assay [1] (setting [5]) came out at 104%; in assay [1], 41%; in assay [3], 10%; in the assay with HUVEC quiescent, 33%; in assay [2], 31%.

Regarding `COc1cc2c(cc1OCCc1ccccc1)oc(=O)c1cc(C(C)=O)ccc12` [Palomid 568], the values for the inhibition (in assay [1] (setting [5]); with HUVEC quiescent; in assay [2]) were 78%, 14% and < 10%, respectively. In assay [4], this compound displayed a hERb % binding of 37%.

For `COc1ccc(COc2cc3oc(=O)c4cc(C(C)O)ccc4c3cc2OC)cc1` (stereo not shown) [Palomid 529], the “inhibition of bFGF-stimulated endothelial cell proliferation” value in assay [1] (FIG. 1A, bFGF-stimulated) was “inhibition”. The “inhibition of VEGF-stimulated endothelial cell proliferation” value in assay [1] (FIG. 1B, VEGF-stimulated) is given as “inhibition”. Moreover, the inhibition in assay [1] (setting [5]) worked out at 113%; in assay [1], 65%; in assay [3], 20%; with HUVEC quiescent, 31%; in assay [2] it was 32%.

As for `COc1cc2c(cc1OCc1ccc(C)cc1)oc(=O)c1cc(C(C)=O)ccc12` [Palomid 559], the inhibition in assay [1] (setting [5]) came out at 96%; in assay [1], 72%; with HUVEC quiescent it was 35%; in assay [2], 17%.

Take `CCc1ccc2c(c1)c(=O)oc1cc(OCc3ccc(C(=O)OC)cc3)c(OC)cc12` [Palomid 573]: the inhibition in assay [1] (setting [5]) was 145%; in assay [3], < 10%; in the assay on HUVEC quiescent, < 10%.

Regarding `CCc1ccc2c(c1)c(=O)oc1cc(OCc3ccc(OC)cc3)c(OC)cc12` [Palomid 550], the inhibition is 77% in assay [1] (setting [5]), < 10% in assay [3], 14% in the assay with HUVEC quiescent and 28% in assay [2].

In the case of `COc1cc2c(cc1OCc1ccccc1)oc(=O)c1cc(C(C)O)ccc12` (stereo not shown) [Palomid 393], the inhibition in assay [1] (setting [5]) was found to be 71%; in assay [3], 26%; in the assay with HUVEC quiescent it was 21%; in assay [2], 11%.

As to `CCc1ccc2c(c1)c(=O)oc1cc(OCc3ccc(C(=O)c4ccccc4)cc3)c(OC)cc12` [Palomid 574], the inhibition in assay [1] (setting [5]) is 74%; in assay [1], 13%; in assay [3], 24%; in the assay with HUVEC quiescent, 29%.

On to `COc1ccccc1COc1cc2oc(=O)c3cc(C(C)O)ccc3c2cc1OC` (stereo not shown) [Palomid 545], for which the inhibition in assay [1] (setting [5]) is 100%; in assay [1] it was 32%; in assay [3], 21%; in the assay with HUVEC quiescent, 22%; in assay [2], 17%.
